Measured values: the NIST ThermoML archive (doi:10.1021/je900643r)
Numbers after ± are expanded uncertainties.

Columns and labels:
[1] = 298.15 K; for surface tension liquid-gas: Drop volume; for mass density: 101.33 kPa, Liquid
[2] = xn = mol fraction of the nth substance listed; conditions: 298.15 K; for surface tension liquid-gas: Drop volume; for mass density: 101 kPa, Liquid

CCCOC(=O)CC [propyl propanoate]
[1]
Conditions | mass density [kg/m3] | surface tension liquid-gas [mN/m]
– | 875.53 ± 0.64 | 24.1 ± 0.19

Cc1ccc(C)cc1 [1,4-dimethylbenzene]
[1]
Conditions | mass density [kg/m3] | surface tension liquid-gas [mN/m]
– | 856.51 ± 0.68 | 27.7 ± 0.21

Cc1ccc(C)cc1 [1,4-dimethylbenzene] + CCCCCC
[2]
Conditions | mass density [kg/m3] | surface tension liquid-gas [mN/m]
x2 = 0.0393 | 848.42 ± 0.5 | –
x2 = 0.0535 | – | 26.84 ± 0.2
x2 = 0.0718 | – | 26.58 ± 0.2
x2 = 0.0869 | 838.63 ± 0.51 | –
x2 = 0.1265 | – | 25.76 ± 0.19
x2 = 0.1341 | – | 25.66 ± 0.19
x2 = 0.1535 | 824.96 ± 0.51 | –
x2 = 0.208 | 813.78 ± 0.52 | –
x2 = 0.3063 | 793.59 ± 0.54 | –
x2 = 0.3083 | – | 23.45 ± 0.17
x2 = 0.3397 | – | 23.1 ± 0.17
x2 = 0.3524 | 784.21 ± 0.55 | –
x2 = 0.399 | – | 22.47 ± 0.17
x2 = 0.4333 | 767.75 ± 0.56 | –
x2 = 0.467 | – | 21.81 ± 0.16
x2 = 0.4867 | 756.93 ± 0.57 | –
x2 = 0.492 | – | 21.59 ± 0.16
x2 = 0.5267 | – | 21.29 ± 0.16
x2 = 0.5404 | 746.02 ± 0.58 | –
x2 = 0.5836 | 737.32 ± 0.59 | –
x2 = 0.6034 | – | 20.67 ± 0.15
x2 = 0.638 | 726.41 ± 0.6 | –
x2 = 0.6394 | – | 20.39 ± 0.15
x2 = 0.6877 | – | 20.07 ± 0.15
x2 = 0.6903 | 715.94 ± 0.61 | –
x2 = 0.7826 | – | 19.41 ± 0.14
x2 = 0.7872 | 696.69 ± 0.63 | –
x2 = 0.8126 | – | 19.22 ± 0.14
x2 = 0.8297 | 688.25 ± 0.64 | –
x2 = 0.8798 | – | 18.79 ± 0.14
x2 = 0.8952 | 675.28 ± 0.66 | –
x2 = 0.9417 | 666.19 ± 0.67 | –

CCCCCC [hexane]
[1]
Conditions | mass density [kg/m3] | surface tension liquid-gas [mN/m]
– | 654.7 ± 0.7 | 17.91 ± 0.13
